Assay results: US20220280581A1, “BENEFICIAL BACTERIA AND SECRETORY IMMUNOGLOBULIN A” (priority 2019, published 2022)

Legend:
[1] = test system: pooled human milk SIgA; assay: Binding of SIgA to bacteria by flow cytometry
Experimental: Binding of sIgA to bacteria. Bacteria from Table 1 were resuspended in 0.8% saline at a concentration of 1×10^7 CFU/mL. SIgA was then added at 0, 10, 100, 500 and 1000 μg per 1×10^7 colony forming units (CFU) of bacteria and incubated at 24° C. for 30 min. Following incubation, bacteria were pelleted at 14000×g for 4 min and washed with saline twice to remove non-adherent SIgA.
(§1) Flow cytometry and immunofluorescence: To measure binding cells were fixed using 4% w/v paraformaldehyde for 30 min, washed with PBS, then incubated with 1% bovine serum albumin (BSA) blocking buffer for 1 h. Cells were stained with 1/100 dilution SYTOT™ 9 (S34854, ThermoFisher) for live cells and goat anti-human IgA conjugated to Alexa 647 fluorophore using 1/50 dilution in 1% BSA (ab96998, Abcam). For flow cytometry, all samples were acquired and analyzed on a FACScan flow cytometer (BD Biosciences, Mountain View, Calif.) using the CellQuest software program. For live/dead analyses following in vitro digestion, cells were stained with SYTOT™ 9 (1/100 dilution) for live cells and propidium iodine (1/1000 dilution) for dead cells or cells with compromised membranes.

[2] = Protection from simulated gastric digestion in vitro (pepsin, pancreatin): viability by CFU plating and live/dead flow cytometry; conditions: for slope of regression plot of viability with SIgA association: post-digestion; for Slope (CFU/% SIgA): regression of viable CFU post-digestion on SIgA association
Experimental: as §1
Protection from digestion using an in vitro model. To determine the extent to which the SIgA-glycan-mediated-bacterial complexes that included the Ig-bound secretory component (SC) where able to protect bacteria and SIgA from proteolytic degradation, an in vitro model was used. Simulated gastric digestion was performed by resuspending bacteria in 200 ul of 0.1% porcine pepsin (Sigma—Aldrich, St. Louis, Mo.) in PBS at pH 4. Samples were placed in an incubating shaker (New Brunswick Scientific, Edison, N.J.) at 140 rpm at 37° C. for 15 min. Cells were then pelleted and resuspended in 200 ul of 0.04% pancreatin (Sigma— Aldrich) in PBS pH 7, and the samples placed in the incubator shaker at 140 rpm at 37° C. for 5 min. Bacteria were pelleted and washed twice with PBS to remove residual enzymes, then evaluated for viability through CFU serial dilution and spot plating, and with live/dead flow cytometry analysis.

[3] = test system: Caco-2 colonic cells co-cultured with HT29-MTX E12 cells; assay: Bacterial adherence to colonocyte co-cultures; format: cell-based, human
Experimental: (§2) Mammalian cell culture binding assays: Caco-2 colonic cells were co-cultured with HT29-MTX E12 cells at a ratio of 3:1 and seeded at a density of 5×10^4 cells/well in 24-well plates, maintained as described above. On day 1 post-confluence, medium was removed, the cells washed once with PBS, and DMEM without FBS or antibiotics was added prior to binding assay. Bacteria were prepared as described above, with or without SIgA and resuspended in PBS at 1×10^7 CFU/mL. 4×10^5 CFU were added to the colonocytes and the plate was centrifuged at 600×g for 5 min to ensure bacteria association with the cells. After 2 h of incubation at 37° C. in 5% CO2, medium was removed and saved for cytokine analysis. Cells were washed once with PBS, and to one set of replicates, cells were lysed with 0.5% Triton X-100 and serial dilutions of the cell suspensions were plated on MRS and incubated anaerobically at 37° C. overnight to test viability. To a second set of replicates, TRIzol (15596018; Life Technologies) was added directly to washed cells for RNA extraction.

[4] = test system: colonocytes (Caco-2 / HT29-MTX E12 co-culture); assay: Colonocyte barrier function and immune gene expression (RT-qPCR); format: cell-based, human; conditions: for change of IL-8 expression when SIgA is first complexed to the bacteria / change of JAM expression when SIgA is first complexed: SIgA-complexed vs bacteria alone
Experimental: as §2
Mammalian cell culture RT-qPCR for gene expression: Total RNA from mammalian co-culture samples were extracted via the TRIzol method. Total RNA (1 μg) was treated with Turbo DNAse (EN0521; Thermo Fisher) to remove genomic DNA, then used for reverse transcription producing cDNA, performed according to manufacturer protocol (High Capacity Complementary DNA Reverse Transcription Kit; Applied Biosystems). Gene list and primer sequences can be found in Table 2. Real-time PCR was performed with the Quantistudio 3 qPCR thermocycler (Applied Biosystems) using SyberGreen master mix (Life Technologies). Actin and GADPH were used as house-keeping genes. Analysis was performed using Quantistudio Design and Analysis Software v.1.4.3.

[5] = test system: Sal4; assay: BLI-Sal4 association: concentration dependence and stability; format: binding; conditions: FIG. 6, BLI-Sal4
[6] = test system: pooled human milk SIgA; assay: Binding of SIgA to bacteria by flow cytometry; conditions: 100 μg SIgA to 1e6 cfu bacteria
[7] = colonocytes, listed as B. infantis

Bifidobacterium longum ssp. infantis ATCC 15697
binding of a heterogeneous pool of SIgA ([1]; 0-1000 μg SIgA per 1e7 CFU): concentration dependent | association to SIgA when first grown on 2′FL ([1]; 1% 2′FL in the final media): increased association to SIgA | viable bacteria post-digestion ([2]; grown on LNnT, 1000 μg SIgA/1e7 CFU): 1.3e5 CFU | viable bacteria post-digestion ([2]; grown on LNnT, no SIgA): 1.2e4 CFU | viable bacteria post-digestion ([2]; grown on glucose, 1000 μg SIgA/1e7 CFU): 8.9e5 CFU | viable bacteria post-digestion ([2]; grown on glucose, no SIgA): 1e5 CFU | slope of regression plot of viability with SIgA association ([2]; grown on LNnT): 1.2e3 CFU per % population SIgA association | slope of regression plot of viability with SIgA association ([2]; grown on glucose): 8.2e4 CFU per % population SIgA association | Slope (CFU/% SIgA) ([2]; substrate 2′FL): 410.1 CFU/% SIgA | Slope (CFU/% SIgA) ([2]; substrate LNnT): 1214 CFU/% SIgA | Slope (CFU/% SIgA) ([2]; substrate glucose): 8970 CFU/% SIgA | Slope (CFU/% SIgA) ([2]; substrate lactose): 76377 CFU/% SIgA | increased adherence to the co-culture with the addition of SIgA ([3]; first grown on LNnT): 7.5e5 CFU | increased adherence to the co-culture with the addition of SIgA ([3]; first grown on glucose): 3.5e6 CFU | slope of regression plot of adherent bacteria with SIgA association ([3]; lactose-grown): 4.6e3 adherent CFU per % population associated with SIgA | Slope (adherent CFU/% SIgA association) ([3]; substrate 2'FL): 1552.0 adherent CFU/% SIgA associatio | Slope (adherent CFU/% SIgA association) ([3]; substrate LNnT): 3606.0 adherent CFU/% SIgA associatio | Slope (adherent CFU/% SIgA association) ([3]; substrate all (no lac)): 4887.0 adherent CFU/% SIgA associatio | Slope (adherent CFU/% SIgA association) ([3]; substrate glucose): 6882.0 adherent CFU/% SIgA associatio | Slope (adherent CFU/% SIgA association) ([3]; substrate lactose): −2230.0 adherent CFU/% SIgA associatio | change of barrier gene MUCSAC expression when SIgA is first complexed ([4]; colonocytes, 1000 μg SIgA per 1e7 CFU): decreased | change of IL-8 expression when SIgA is first complexed to the bacteria [4, 7]: reduces the expression | change of JAM expression when SIgA is first complexed [4, 7]: increasing the expression | change of IL-8 expression when SIgA is first complexed to the bacteria ([4]; colonocytes, listed as BLI): increased | change of JAM expression when SIgA is first complexed ([4]; colonocytes, listed as BLI): decreased | change of Claudin 1 expression with SIgA association ([4]; mammalian colonocytes): increasing the expression | change of Occludin expression with SIgA association ([4]; mammalian colonocytes): increasing the expression | SIgA association with BLI: concentration dependence [5]: concentration dependent | SIgA association with BLI: stability over time ([5]; 6 hour): stable over a 6 hour time interval | ability to bind to pooled human milk SIgA [6]: 92.4% | increase in SIgA binding when first grown on an HMO substrate ([6]; HMO-grown): 4.8%
